≈ marks a conversion by molar mass, not a printed value.
Tests used:
Staphylococcus aureus = test: Antimicrobial activity against Staphylococcus aureus after 24 hrs by twofold serial dilution method; format: functional; conditions: read-out: -Log MIC
Candida albicans = test: Antifungal activity against Candida albicans after 2 days by twofold serial dilution method; format: functional; conditions: 48 h, read-out: -Log MIC
Bacillus subtilis = test: Antimicrobial activity against Bacillus subtilis after 24 hrs by twofold serial dilution method; format: functional; conditions: read-out: -Log MIC
Aspergillus niger = test: Antifungal activity against Aspergillus niger after 7 days by twofold serial dilution method; format: functional; conditions: 168 h, read-out: -Log MIC
[1] = Partition coefficient, log P of the compound; conditions: octanol/water
Escherichia coli = test: Antimicrobial activity against Escherichia coli after 24 hrs by twofold serial dilution method; format: functional; conditions: read-out: -Log MIC

SMILES | MIC (Staphylococcus aureus) | MIC (Candida albicans) | MIC (Bacillus subtilis) | MIC (Aspergillus niger) | logP [1] | MIC (Escherichia coli)
C/C=C/C=C/C(=O)OCCCCCC | 100 µM (≈ 19.6 µg/mL) | 51.3 µM (≈ 10.1 µg/mL) | 63.1 µM (≈ 12.4 µg/mL) | 63.1 µM (≈ 12.4 µg/mL) | 3.5 | 
C/C=C/C=C/C(=O)Nc1cccc(O)c1 | 89.1 µM (≈ 18.1 µg/mL) | 53.7 µM (≈ 10.9 µg/mL) | 53.7 µM (≈ 10.9 µg/mL) | 69.2 µM (≈ 14.1 µg/mL) | 2.25 | 100 µM (≈ 20.3 µg/mL)
C/C=C/C=C/C(=O)N(CCO)CCO | 79.4 µM (≈ 15.8 µg/mL) | 50.1 µM (≈ 9.98 µg/mL) | 63.1 µM (≈ 12.6 µg/mL) |  | 0.21 | 91.2 µM (≈ 18.2 µg/mL)
C/C=C/C=C/C(=O)Oc1cccc2cccnc12 | 12.9 µM (≈ 3.09 µg/mL) | 52.5 µM (≈ 12.6 µg/mL) | 12.9 µM (≈ 3.09 µg/mL) | 38 µM (≈ 9.09 µg/mL) | 3.27 | 12.9 µM (≈ 3.09 µg/mL)
C/C=C/C=C/C(=O)O [SORBIC ACID] |  |  |  |  | 1.47 | 
C/C=C/C=C/C(=O)NCCC | 100 µM (≈ 15.3 µg/mL) | 81.3 µM (≈ 12.5 µg/mL) | 72.4 µM (≈ 11.1 µg/mL) | 100 µM (≈ 15.3 µg/mL) | 1.66 | 
C/C=C/C=C/C(=O)OCCC |  | 70.8 µM (≈ 10.9 µg/mL) | 70.8 µM (≈ 10.9 µg/mL) | 81.3 µM (≈ 12.5 µg/mL) | 2.31 | 
C/C=C/C=C/C(=O)Nc1ccccc1 |  | 66.1 µM (≈ 12.4 µg/mL) | 66.1 µM (≈ 12.4 µg/mL) | 74.1 µM (≈ 13.9 µg/mL) | 2.53 | 
C/C=C/C=C/C(=O)OCCCCC | 79.4 µM (≈ 14.5 µg/mL) | 50.1 µM (≈ 9.13 µg/mL) | 63.1 µM (≈ 11.5 µg/mL) | 69.2 µM (≈ 12.6 µg/mL) | 3.1 | 100 µM (≈ 18.2 µg/mL)
C/C=C/C=C/C(=O)Nc1cccc([N+](=O)[O-])c1 | 50.1 µM (≈ 11.6 µg/mL) | 47.9 µM (≈ 11.1 µg/mL) | 34.7 µM (≈ 8.06 µg/mL) | 39.8 µM (≈ 9.24 µg/mL) | 2.49 | 60.3 µM (≈ 14 µg/mL)
C/C=C/C=C/C(=O)OCC |  | 77.6 µM (≈ 10.9 µg/mL) | 89.1 µM (≈ 12.5 µg/mL) | 100 µM (≈ 14 µg/mL) | 1.84 | 
C=CCOC(=O)/C=C/C=C/C |  | 81.3 µM (≈ 12.4 µg/mL) | 79.4 µM (≈ 12.1 µg/mL) | 79.4 µM (≈ 12.1 µg/mL) | 2.24 | 
C/C=C/C=C/C(=O)Nc1cccc(Cl)c1 | 63.1 µM (≈ 14 µg/mL) | 50.1 µM (≈ 11.1 µg/mL) | 50.1 µM (≈ 11.1 µg/mL) | 39.8 µM (≈ 8.82 µg/mL) | 3.05 | 72.4 µM (≈ 16.1 µg/mL)
C/C=C/C=C/C(=O)NCC |  | 79.4 µM (≈ 11.1 µg/mL) | 89.1 µM (≈ 12.4 µg/mL) | 89.1 µM (≈ 12.4 µg/mL) | 1.19 | 
C/C=C/C=C/C(=O)Nc1ccc(Br)cc1 | 37.2 µM (≈ 9.9 µg/mL) | 46.8 µM (≈ 12.5 µg/mL) | 47.9 µM (≈ 12.7 µg/mL) | 50.1 µM (≈ 13.3 µg/mL) | 3.32 | 79.4 µM (≈ 21.1 µg/mL)
C/C=C/C=C/C(=O)N(c1ccccc1)c1ccccc1 | 50.1 µM (≈ 13.2 µg/mL) | 47.9 µM (≈ 12.6 µg/mL) | 38 µM (≈ 10 µg/mL) | 39.8 µM (≈ 10.5 µg/mL) | 4.46 | 58.9 µM (≈ 15.5 µg/mL)
C/C=C/C=C/C(=O)Nc1ccccc1N | 63.1 µM (≈ 12.8 µg/mL) | 61.7 µM (≈ 12.5 µg/mL) | 49 µM (≈ 9.91 µg/mL) | 69.2 µM (≈ 14 µg/mL) | 1.75 | 69.2 µM (≈ 14 µg/mL)
C/C=C/C=C/C(=O)Nc1cccc(C)c1 | 61.7 µM (≈ 12.4 µg/mL) | 61.7 µM (≈ 12.4 µg/mL) | 47.9 µM (≈ 9.64 µg/mL) | 61.7 µM (≈ 12.4 µg/mL) | 3 | 79.4 µM (≈ 16 µg/mL)
C/C=C/C=C/C(=O)OCCCCCCC | 58.9 µM (≈ 12.4 µg/mL) | 58.9 µM (≈ 12.4 µg/mL) | 50.1 µM (≈ 10.5 µg/mL) | 58.9 µM (≈ 12.4 µg/mL) | 3.9 | 79.4 µM (≈ 16.7 µg/mL)
C/C=C/C=C/C(=O)Nc1ccc([N+](=O)[O-])cc1 | 60.3 µM (≈ 14 µg/mL) | 53.7 µM (≈ 12.5 µg/mL) | 38.9 µM (≈ 9.03 µg/mL) | 53.7 µM (≈ 12.5 µg/mL) | 2.49 | 60.3 µM (≈ 14 µg/mL)
C/C=C/C=C/C(=O)OC(C)(C)C | 74.1 µM (≈ 12.5 µg/mL) | 53.7 µM (≈ 9.03 µg/mL) | 50.1 µM (≈ 8.43 µg/mL) | 74.1 µM (≈ 12.5 µg/mL) | 2.33 | 83.2 µM (≈ 14 µg/mL)

SMILES | MIC (Staphylococcus aureus) | MIC (Candida albicans) | MIC (Bacillus subtilis) | MIC (Aspergillus niger) | logP [1] | MIC (Escherichia coli)
C/C=C/C=C/C(=O)OCCCC | 100 µM (≈ 16.8 µg/mL) | 74.1 µM (≈ 12.5 µg/mL) | 74.1 µM (≈ 12.5 µg/mL) | 74.1 µM (≈ 12.5 µg/mL) | 2.71 | 
C/C=C/C=C/C(=O)NCCO |  | 81.3 µM (≈ 12.6 µg/mL) | 91.2 µM (≈ 14.2 µg/mL) |  | 0.41 | 
C/C=C/C=C/C(=O)NC | 100 µM (≈ 12.5 µg/mL) | 79.4 µM (≈ 9.94 µg/mL) | 79.4 µM (≈ 9.94 µg/mL) | 79.4 µM (≈ 9.94 µg/mL) | 0.85 | 
C/C=C/C=C/C(=O)N1CCOCC1 | 69.2 µM (≈ 12.5 µg/mL) | 63.1 µM (≈ 11.4 µg/mL) | 55 µM (≈ 9.97 µg/mL) | 79.4 µM (≈ 14.4 µg/mL) | 0.75 | 
C/C=C/C=C/C(=O)Nc1ccccc1OC | 63.1 µM (≈ 13.7 µg/mL) | 50.1 µM (≈ 10.9 µg/mL) | 57.5 µM (≈ 12.5 µg/mL) | 63.1 µM (≈ 13.7 µg/mL) | 2.28 | 79.4 µM (≈ 17.3 µg/mL)
C/C=C/C=C/C(=O)Nc1ccccc1Cl | 70.8 µM (≈ 15.7 µg/mL) | 56.2 µM (≈ 12.5 µg/mL) | 56.2 µM (≈ 12.5 µg/mL) | 63.1 µM (≈ 14 µg/mL) | 3.05 | 81.3 µM (≈ 18 µg/mL)
C/C=C/C=C/C(=O)Nc1ccc(Cl)cc1 | 63.1 µM (≈ 14 µg/mL) | 50.1 µM (≈ 11.1 µg/mL) | 44.7 µM (≈ 9.91 µg/mL) | 50.1 µM (≈ 11.1 µg/mL) | 3.05 | 72.4 µM (≈ 16.1 µg/mL)
C/C=C/C=C/C(=O)OC [METHYL SORBATE] | 100 µM (≈ 12.6 µg/mL) | 79.4 µM (≈ 10 µg/mL) | 79.4 µM (≈ 10 µg/mL) | 100 µM (≈ 12.6 µg/mL) | 1.5 | 
C/C=C/C=C/C(=O)NN |  | 100 µM (≈ 12.6 µg/mL) | 100 µM (≈ 12.6 µg/mL) |  | 0.59 | 
O=C(O)c1cn(C2CC2)c2cc(N3CCNCC3)c(F)cc2c1=O [CIPROFLOXACIN] | 0.468 µM (≈ 0.155 µg/mL) |  | 0.468 µM (≈ 0.155 µg/mL) |  |  | 0.468 µM (≈ 0.155 µg/mL)
C/C=C/C=C/C(=O)N1CCCCC1 | 77.6 µM (≈ 13.9 µg/mL) | 69.2 µM (≈ 12.4 µg/mL) | 61.7 µM (≈ 11.1 µg/mL) | 63.1 µM (≈ 11.3 µg/mL) | 1.82 | 
C/C=C/C=C/C(=O)Oc1ccccc1 | 95.5 µM (≈ 18 µg/mL) | 56.2 µM (≈ 10.6 µg/mL) | 58.9 µM (≈ 11.1 µg/mL) | 47.9 µM (≈ 9.02 µg/mL) | 3.18 | 74.1 µM (≈ 13.9 µg/mL)
C/C=C/C=C/C(=O)OC(C)CC (stereo not given) |  | 74.1 µM (≈ 12.5 µg/mL) | 74.1 µM (≈ 12.5 µg/mL) | 83.2 µM (≈ 14 µg/mL) | 2.72 | 
C/C=C/C=C/C(=O)OCc1ccccc1 | 63.1 µM (≈ 12.8 µg/mL) | 61.7 µM (≈ 12.5 µg/mL) | 69.2 µM (≈ 14 µg/mL) | 70.8 µM (≈ 14.3 µg/mL) | 3.28 | 100 µM (≈ 20.2 µg/mL)
C/C=C/C=C/C(=O)NCc1ccccc1 | 70.8 µM (≈ 14.2 µg/mL) | 61.7 µM (≈ 12.4 µg/mL) | 61.7 µM (≈ 12.4 µg/mL) | 61.7 µM (≈ 12.4 µg/mL) | 2.63 | 100 µM (≈ 20.1 µg/mL)
C/C=C/C=C/C(=O)N(C)C | 79.4 µM (≈ 11.1 µg/mL) | 63.1 µM (≈ 8.78 µg/mL) | 72.4 µM (≈ 10.1 µg/mL) | 79.4 µM (≈ 11.1 µg/mL) | 1.1 | 
C/C=C/C=C/C(=O)Nc1ccc(OC)cc1 | 64.6 µM (≈ 14 µg/mL) | 50.1 µM (≈ 10.9 µg/mL) | 45.7 µM (≈ 9.93 µg/mL) | 44.7 µM (≈ 9.71 µg/mL) | 2.28 | 64.6 µM (≈ 14 µg/mL)
C/C=C/C=C/C(=O)OCC(C)C | 100 µM (≈ 16.8 µg/mL) | 74.1 µM (≈ 12.5 µg/mL) | 74.1 µM (≈ 12.5 µg/mL) | 63.1 µM (≈ 10.6 µg/mL) | 2.71 | 
C/C=C/C=C/C(=O)OC(C)C | 81.3 µM (≈ 12.5 µg/mL) | 63.1 µM (≈ 9.73 µg/mL) | 63.1 µM (≈ 9.73 µg/mL) | 56.2 µM (≈ 8.67 µg/mL) | 2.26 | 
C/C=C/C=C/C(=O)OCCC(C)C | 63.1 µM (≈ 11.5 µg/mL) | 69.2 µM (≈ 12.6 µg/mL) | 55 µM (≈ 10 µg/mL) | 69.2 µM (≈ 12.6 µg/mL) | 3.04 | 100 µM (≈ 18.2 µg/mL)
C/C=C/C=C/C(=O)Nc1ccc(C)cc1 | 61.7 µM (≈ 12.4 µg/mL) | 55 µM (≈ 11.1 µg/mL) | 55 µM (≈ 11.1 µg/mL) | 34.7 µM (≈ 6.98 µg/mL) | 3 | 100 µM (≈ 20.1 µg/mL)
